Laboratory results reported in publication PMC12352625, “Double crossed? Structural and computational studies of an unusually crosslinked haem in Methylococcus capsulatus cytochrome P460” (Chemical Science, 2025).

Biological target: T1, McP460 (cytochrome P460 from Methylococcus capsulatus (Bath)) (Methylococcus capsulatus, UniProt G1UBD9)
T1 construct: gene MCA0524; recombinant from E. coli; covalent c-type P460 haem (Cys140, Cys143, His144, Lys78)
T1 sequence (G1UBD9 18-161): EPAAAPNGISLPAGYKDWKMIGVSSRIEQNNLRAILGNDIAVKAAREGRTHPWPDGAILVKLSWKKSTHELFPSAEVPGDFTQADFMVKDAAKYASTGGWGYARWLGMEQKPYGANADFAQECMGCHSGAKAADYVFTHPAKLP
Assay: DCPIP reduction assay; N2O by GC-MS; nitrite by Griess assay
Assay type: biochemical
Conditions: 5 uM enzyme, 6 uM PMS, 2 mM [Ru(NH3)6]Cl3, 0-1000 uM hydroxylamine for product assays; anaerobic or aerobic

For NO [hydroxylamine], the “DCPIP reduction assay; N2O by GC-MS; nitrite by Griess assay” value was “assays were carried out to assess the protein's ability to oxidise hydroxylamine, and product formation”.
